# Assay results taken from patent US20090181003A1, “Regulation of S6 Kinsase Protein Activity and Related Methods” (priority 2005, published 2009).
# Columns and labels:
# S6K1 K516 acetylation = S6K1 K516 acetylation in serum-stimulated NIH 3T3 cells treated with signal transduction inhibitors (Ac-K516 immunoblot); type: cell-based; conditions: 50 nM Rapamycin, 20 μM LY294002 or 10 μM PD98059 30 minutes before serum stimulation, lysed after 1 hr
# Protocol: In this study, NIN3T3 cells were starved and stimulated with serum for various period of time. Total cell lysates were separated by SDS-PAGE and immunoblotted with acetyl-K516 antibodies. In FIG. 10B, the effect of various cell signalling inhibitors on K516 acetylation is shown. In this study, NIH3T3 cells were starved and treated with 50 nM Rapamycin (mTor inhibitor), 20 μM LY294002 (phosphatidylinositol 3′-kinase inhibitor), 10 μM PD98059 (MAP kinase inhibitor) or vehicle alone thirty minutes before stimulation with serum. Then, cells were stimulated with serum for one hour and lysed. The supernatants of total lysates were separated by SDS-PAGE and Western blotted with acetyl-K516 antibodies. […] The wtS6K and K516R mutants were transiently expressed in Hek293 cells. Immunoprecipitated recombinant S6Ks and total cell lysates were resolved by gel electrophoresis and immunoblotted with antibodies specific for EE tag, pT412 and actin.
# Furthermore, the effect of signal transduction inhibitors on K516 acetylation was studied in NIH 3T3 cell. In this experiment, cells were serum starved and treated with rapamycin, LY and PD for 30 minutes before serum stimulation. Cells were lysed 1 hr hour after stimulation and the lysates separated by SDS-PAGE and immunoblotted with Ac-K516, pT412 antibodies.
# [1] = target: T1, recombinant purified S6K1 (Homo sapiens, UniProt P23443); assay: In vitro kinase assay with recombinant purified S6K in presence or absence of deacetylase inhibitors; type: biochemical; conditions: presence or absence of TSA and nicotinamide
# T1 construct: made in house; host or cells: insect cells (baculovirus)
# T1 sequence (P23443 whole entry): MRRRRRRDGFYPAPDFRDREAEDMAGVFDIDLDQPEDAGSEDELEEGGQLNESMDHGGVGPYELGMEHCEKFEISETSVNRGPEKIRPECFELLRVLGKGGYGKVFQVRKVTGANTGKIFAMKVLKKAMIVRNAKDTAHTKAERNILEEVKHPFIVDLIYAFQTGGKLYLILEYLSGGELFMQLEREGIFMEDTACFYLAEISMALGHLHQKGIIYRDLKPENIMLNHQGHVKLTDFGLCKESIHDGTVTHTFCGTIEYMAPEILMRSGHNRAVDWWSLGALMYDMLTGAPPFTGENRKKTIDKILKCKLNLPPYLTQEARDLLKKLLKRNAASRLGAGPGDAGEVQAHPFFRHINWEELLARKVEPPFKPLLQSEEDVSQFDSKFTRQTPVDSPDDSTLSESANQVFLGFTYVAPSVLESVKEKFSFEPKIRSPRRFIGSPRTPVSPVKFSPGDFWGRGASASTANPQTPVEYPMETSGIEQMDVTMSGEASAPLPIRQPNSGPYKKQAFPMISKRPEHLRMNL
# Protocol: (§1) (A) The cell lines indicated (see text) were treated with TSA and nicotinamide for eight hours. Following lysis, proteins were resolved by SDS-PAGE and western blots were probed as labelled to evaluate S6K activation. (B) MKOC cells (see text) were treated as in (A) and analysed by western blotting. S6K1 was also immunoprecipitated from lysates and subjected to immune complex kinase assay.
# Firstly, that TSA is not a specific inhibitor of HDAC activity but that it is also a direct S6K inhibitor in the classical sense. […] In order to test the former explanation, that TSA is a direct S6K inhibitor, in vitro kinase assays were conducted using recombinant purified S6K in the presence or absence of TSA and nicotinamide (FIG. 6C).
# S6 kinases = assay: S6 kinase acetylation in HEK 293 cells cotransfected with EE-tagged S6 kinases and p300 (anti-acetylated lysine immunoblot); type: cell-based; conditions: HEK 293 cells with overexpressed p300; TSA 660 nM for 12 hours
# Protocol: In FIG. 2A, recombinant S6 kinases were acetylated in vitro using the purified acetyltransferase domain of p300 or full length PCAF and ^14C-labelled acetyl CoA. Proteins were resolved by SDS-PAGE and acetylated proteins were analysed by phosphorimaging (Bio-rad). In FIG. 2B, recombinant S6K2 or GST were subject to in vitro acetylation reactions with p300 and 14C AcCoA. Recombinant PKB/Akt, PKCa, PDK1 and PI3K (p85a/p110a) were purified using baculovirus expression system. In vitro acetylation assay was carried out as previously described. In FIG. 2D, HEK 293 cells were transfected with S6 kinases in the absence or presence of Gal4-p300 as shown. Cells were treated with medium containing either solvent control or TSA to a final concentration of 660 nM for twelve hours prior to harvesting. Recombinant S6 kinases were immunoprecipitated using the EE-antibody and acetylated S6 kinase was detected by western blotting with polyclonal acetylated lysine antibodies (Upstate). The level of immunoprecipitated S6K1 and S6K2 was analysed by reprobing the membranes with specific antibodies. The expression of Gal4-p300 was tested in total lysates using anti-Gal4 antibodies.
# In order to test whether S6 kinase proteins are subject to acetylation within cells, HEK 293 cells were cotransfected with EE-tagged S6 kinases and p300. […]
# S6K = S6K activity after deacetylase inhibition in a range of cell types (western blot, immune complex kinase assay); type: cell-based
# Protocol: as §1
# (§2) Histone deacetylase inhibitors downregulate S6K activity in a range of different cell types. In order to test the model that S6K acetylation may be playing a role in its de-activation, the effect of TSA on S6K activity was analysed in a number of cell types, some of which contain mutations in the pathways leading to S6K activation, thus affording a genetic analysis of this phenomenon. […] PC-3 is a PTEN-null prostate cancer cell line in which basal PKB and S6K activation is high due to deregulation of PI3K signalling. […] The MKOC cell line was derived from a renal tumour removed from a Tsc2^−/− mouse. Since these cells lack Tsc2, S6K activity is uncoupled from both PKB and the tuberous sclerosis complex heterodimer. […] It should be noted that, although the same trend (reduced S6K phosphorylation and activity following treatment with deacetylase inhibitors) is seen in all the cell lines tested, the magnitude of this effect does vary. […]
# S6 kinase = S6 kinase activation in C2C12 myoblasts by western blotting (pT412, phospho-rpS6), TSA dose course; type: cell-based; conditions: 18 hours, doses of 500 nM TSA and above
# Protocol: In FIG. 6A (upper panel), C2C12 myoblasts were treated for 18 hours with increasing concentrations of TSA or with the structurally unrelated HDAC inhibitor, sodium butyrate. Endogenous S6 kinase activity was assessed by western blotting against pT412 and against phosho-rpS6. In another experiment, C2C12 cells were treated with 1 μM TSA or control for the times shown and S6 kinase activity was measured by in vitro kinase assay using purified ribosomes as substrate (FIG. 6B). A representative autoradiograph is shown beneath the graph.
# Since phosphorylation of multiple residues in S6 kinases has a potent effect on their kinase activity, it was interesting to see whether acetylation, an alternative post-translational modification, may also modulate the S6 kinase enzyme activity. Although kinase acetylation has not been described to date, there are examples of enzymes whose activity is regulated by p300-mediated acetylation, including Fen 1 (Hasan et al. (2001) Mol. Cell. 7, 1221-1231) and DNA polymerase beta (Hasan et al. (2002) Mol. Cell. 10, 1213-1222). In order to test whether S6 kinase acetylation may affect its kinase activity in vivo, C2C12 myoblasts were treated with a dose course of TSA. S6 kinase activation was analysed by western blotting with an antibody specific for phospho-threonine 412 and also with an antibody against the phosphorylated form of rpS6. […]
# 4EBP1 (target of mTOR) = assay: Phospho-4EBP1 blotting in MKOC cells; type: cell-based, mouse; conditions: TSA treatment
# Protocol: as §1, §2
SMILES,acetylation of S6K1 at K516 (S6K1 K516 acetylation),S6K activity in vitro (direct kinase inhibition) [1],level of S6 kinase acetylation (S6 kinases),S6K activity (S6K; MKOC cells (Tsc2-/- mouse renal tumour)),S6K activity (S6K; PC-3 cells (PTEN-null prostate cancer cell line)),S6 kinase activation (phospho-threonine 412 and S6 protein phosphorylation) (S6 kinase),phospho-4EBP1 phosphorylation status (4EBP1 (target of mTOR))
COc1cccc(-c2cc(=O)c3ccccc3o2)c1N [PD98059],not affected,–,–,–,–,–,–
"CC(/C=C/C(=O)NO)=C\[C@@H](C)C(=O)c1ccc(N(C)C)cc1 [TSA, Trichostatin A]",–,does not indicate that TSA inhibits S6K activity in vitro,significantly increased,reduction of S6K activity,inhibited,potently inhibited,unaffected
